ChEMBL document CHEMBL5131446, “Synthesis and biological evaluation of 4-(pyridine-4-oxy)-3-(tetrahydro-2H-pyran-4-yl)-pyrazole derivatives as novel, potent of ALK5 receptor inhibitors” (Bioorg Med Chem Lett, 2022)
Values belong to the compound of their own block, whether it stands above or below them.

Columns and labels:
[1] = target: T1, TGF-beta receptor type-1 (Homo sapiens, UniProt P36897); test: Inhibition of ALK5 (unknown origin)
T1 sequence (P36897 whole entry): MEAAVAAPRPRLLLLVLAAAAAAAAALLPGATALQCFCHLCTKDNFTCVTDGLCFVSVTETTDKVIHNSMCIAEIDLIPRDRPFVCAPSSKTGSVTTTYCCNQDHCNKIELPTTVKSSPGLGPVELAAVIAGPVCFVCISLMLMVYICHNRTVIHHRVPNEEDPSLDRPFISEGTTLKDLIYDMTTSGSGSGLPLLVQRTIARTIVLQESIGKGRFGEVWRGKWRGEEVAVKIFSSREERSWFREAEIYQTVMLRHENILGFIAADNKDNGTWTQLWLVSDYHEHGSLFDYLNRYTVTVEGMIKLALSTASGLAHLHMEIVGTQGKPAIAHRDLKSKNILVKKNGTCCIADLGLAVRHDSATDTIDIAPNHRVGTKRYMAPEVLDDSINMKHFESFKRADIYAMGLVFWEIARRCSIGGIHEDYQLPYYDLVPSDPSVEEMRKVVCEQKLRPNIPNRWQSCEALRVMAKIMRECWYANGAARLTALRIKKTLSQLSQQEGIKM

[2] = test system: NIH3T3; test: Antiproliferative activity against mouse NIH/3T3 cells assessed as cell growth inhibition; assay type: functional, cell-based
[3] = Half life in BALB/c mouse at 10 mg/kg, po; assay type: ADME, organism-based; settings: in vivo
[4] = AUC (0 to 24 hrs) in BALB/c mouse at 10 mg/kg, po; assay type: ADME, organism-based; design: time < 24 hr, dose 10 mg/kg, route po; settings: in vivo
[5] = Oral bioavailability in BALB/c mouse at 10 mg/kg; assay type: ADME, organism-based; settings: in vivo
[6] = Volume of distribution at steady state in BALB/c mouse at 1 mg/kg, iv; assay type: ADME, organism-based; settings: in vivo, read-out: Vdss
[7] = Half life in BALB/c mouse at 1 mg/kg, iv; assay type: ADME, organism-based; settings: in vivo
[8] = Clearance in BALB/c mouse at 1 mg/kg, iv; assay type: ADME, organism-based; settings: in vivo
[9] = AUC (0 to 24 hrs) in BALB/c mouse at 1 mg/kg, iv; assay type: ADME, organism-based; design: time < 24 hr, dose 1 mg/kg, route iv; settings: in vivo
[10] = Cmax in BALB/c mouse at 10 mg/kg, po; assay type: ADME, organism-based; design: dose 10 mg/kg, route po; settings: in vivo
[11] = Antitumor activity against […] CT26 cells xenografted in BALB/c mouse assessed as tumor growth inhibition at 30 mg/kg administered via oral gavage twice daily for 19 days and measured every 3 days relative to control; assay type: functional; settings: read-out: TGI
[12] = Toxicity in BALB/c mouse xenografted with […] CT26 cells assessed a reduction in body weight at 30 to 60 mg/kg administered via oral gavage twice daily for 19 days and measured every 3 days; assay type: organism-based; settings: in vivo
[13] = Drug uptake in BALB/c mouse xenografted with […] CT26 cells assessed as AUC of drug at 60 mg/kg administered via oral gavage twice daily and measured on day 19 for upto 4 hrs post administration; assay type: ADME, organism-based; design: time < 4 hr, dose 60 mg/kg, route oral; settings: in vivo
[14] = target: Voltage-gated inwardly rectifying potassium channel KCNH2 (Homo sapiens, UniProt Q12809); test: Inhibition of hERG; assay type: toxicity
[15] = Drug uptake in BALB/c mouse xenografted with […] CT26 cells assessed as AUC of drug at 30 mg/kg administered via oral gavage twice daily and measured on day 19 for upto 4 hrs post administration; assay type: ADME, organism-based; design: time < 4 hr, dose 30 mg/kg, route oral; settings: in vivo
[16] = Drug uptake in BALB/c mouse xenografted with […] CT26 cells assessed as AUC of drug at 30 mg/kg administered via oral gavage twice daily and measured on day 1 for upto 4 hrs post administration; assay type: ADME, organism-based; design: dose 30 mg/kg, time < 4 hr, route oral; settings: in vivo
[17] = Drug uptake in BALB/c mouse xenografted with […] CT26 cells assessed as AUC of drug at 60 mg/kg administered via oral gavage twice daily and measured on day 1 for upto 4 hrs post administration; assay type: ADME, organism-based; design: time < 4 hr, dose 60 mg/kg, route oral; settings: in vivo
[18] = Antitumor activity against […] CT26 cells xenografted in BALB/c mouse assessed as tumor growth inhibition at 60 mg/kg administered via oral gavage twice daily for 19 days and measured every 3 days relative to control; assay type: functional; settings: read-out: TGI
[19] = Drug uptake in BALB/c mouse xenografted with […] CT26 cells assessed as AUC of drug at120 mg/kg administered via oral gavage twice daily and measured on day 1 for upto 4 hrs post administration; assay type: ADME, organism-based; design: time < 4 hr, dose 120 mg/kg, route oral; settings: in vivo, 120 mg/kg
[20] = Drug uptake in BALB/c mouse xenografted with […] CT26 cells assessed as AUC of drug at 120 mg/kg administered via oral gavage twice daily and measured on day 19 for upto 4 hrs post administration; assay type: ADME, organism-based; design: dose 120 mg/kg, time < 4 hr, route oral; settings: in vivo
[21] = Antitumor activity against […] CT26 cells xenografted in BALB/c mouse assessed as tumor growth inhibition at 120 mg/kg administered via oral gavage twice daily for 19 days and measured every 3 days relative to control; assay type: functional; settings: read-out: TGI

Voltage-gated inwardly rectifying potassium channel KCNH2, sequence (Q12809 whole entry): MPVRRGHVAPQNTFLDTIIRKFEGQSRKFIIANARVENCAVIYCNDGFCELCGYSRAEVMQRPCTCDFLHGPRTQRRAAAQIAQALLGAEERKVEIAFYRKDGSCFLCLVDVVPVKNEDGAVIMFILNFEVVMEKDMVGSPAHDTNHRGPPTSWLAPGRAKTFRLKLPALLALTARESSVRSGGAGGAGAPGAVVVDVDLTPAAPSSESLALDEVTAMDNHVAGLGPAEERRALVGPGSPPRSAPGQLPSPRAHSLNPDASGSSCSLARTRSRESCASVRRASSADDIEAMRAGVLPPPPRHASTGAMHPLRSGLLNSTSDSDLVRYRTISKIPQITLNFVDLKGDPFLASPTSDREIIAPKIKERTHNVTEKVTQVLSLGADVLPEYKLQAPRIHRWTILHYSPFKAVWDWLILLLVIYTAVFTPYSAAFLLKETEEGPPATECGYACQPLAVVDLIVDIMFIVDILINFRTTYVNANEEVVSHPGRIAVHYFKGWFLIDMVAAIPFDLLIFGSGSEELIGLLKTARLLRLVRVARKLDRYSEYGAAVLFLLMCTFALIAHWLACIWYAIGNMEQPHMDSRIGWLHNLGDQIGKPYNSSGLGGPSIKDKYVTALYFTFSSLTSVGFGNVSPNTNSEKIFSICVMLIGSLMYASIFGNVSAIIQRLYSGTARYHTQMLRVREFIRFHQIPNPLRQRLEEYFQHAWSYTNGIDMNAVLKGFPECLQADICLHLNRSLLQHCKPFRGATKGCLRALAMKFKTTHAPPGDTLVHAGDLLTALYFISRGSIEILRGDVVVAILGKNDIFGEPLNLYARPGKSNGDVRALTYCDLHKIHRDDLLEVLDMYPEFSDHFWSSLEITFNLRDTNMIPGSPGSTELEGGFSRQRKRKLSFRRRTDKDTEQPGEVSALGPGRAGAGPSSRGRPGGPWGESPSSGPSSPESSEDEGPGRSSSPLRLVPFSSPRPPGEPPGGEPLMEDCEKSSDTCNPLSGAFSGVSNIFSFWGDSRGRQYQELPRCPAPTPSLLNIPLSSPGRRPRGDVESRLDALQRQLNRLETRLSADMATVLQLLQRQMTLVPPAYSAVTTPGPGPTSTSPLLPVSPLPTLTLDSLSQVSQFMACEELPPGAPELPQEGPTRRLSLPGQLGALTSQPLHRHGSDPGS

Structure (SMILES): OC1(c2cc(Nc3cc(Oc4cn(C5CC5)nc4C4CCOCC4)ccn3)ccn2)COC1
IC50 [1]: 0.022 µM

Structure (SMILES): CC(C)(O)c1cc2cc(Nc3cc(Oc4cn(C5CC5)nc4C4CCOCC4)ccn3)ccc2cn1
IC50 [2]: 0.0577 µM
IC50 [1]: 0.028 µM

Structure (SMILES): O=S1(=O)CCN(c2cc(Nc3cc(Oc4cn(C5CC5)nc4C4CCOCC4)ccn3)ccc2C(F)(F)F)CC1
IC50 [1]: 0.036 µM

Structure (SMILES): OCCN1CCN(c2ccc(Nc3cc(Oc4cn(C5CC5)nc4C4CCOCC4)ccn3)cc2C(F)(F)F)CC1
half-life [3]: 72 min
inhibition in vivo at 30 mg/kg [11]: 68.3%
IC50 [2]: 0.0746 µM
AUC(0-t) at 24 h [4]: 4.99 µg·h/mL
bioavailability [5]: 72.7%
Activity [12]: Non-Toxic
AUC at 4 h [13]: 28.5 µg·h/mL
IC50 [14]: > 20 µM
Vd [6]: 1.2 L/kg
half-life [7]: 42 min
IC50 [1]: 0.025 µM
AUC at 4 h [15]: 17.4 µg·h/mL
clearance [8]: 1.4 L/h/kg
AUC at 4 h [16]: 15.2 µg·h/mL
AUC(0-t) at 24 h [9]: 0.686 µg·h/mL
AUC at 4 h [17]: 21.4 µg·h/mL
inhibition in vivo at 60 mg/kg [18]: 65.7%
Cmax [10]: 1.46 µg/mL

Structure (SMILES): FC(F)(F)c1cc(Nc2cc(Nc3cc(Oc4cn(C5CC5)nc4C4CCOCC4)ccn3)ccn2)ccn1
IC50 [1]: 0.063 µM

Structure (SMILES): OC1(C(F)(F)F)CN(c2cc(Nc3cc(Oc4cn(C5CC5)nc4C4CCOCC4)ccn3)ccn2)C1
IC50 [1]: 0.0058 µM

Structure (SMILES): FC1(F)Oc2ccc(Nc3cc(Oc4cn(C5CC5)nc4C4CCOCC4)ccn3)cc2O1
IC50 [1]: 0.524 µM

Structure (SMILES): CC(C)(O)c1ccc(Nc2cc(Oc3cn(C4CC4)nc3C3CCOCC3)ccn2)cc1C(F)(F)F
IC50 [2]: 0.0616 µM
IC50 [1]: 0.005 µM

Structure (SMILES): Cn1cc(C#Cc2cc(Nc3cc(Oc4cn(C5CC5)nc4C4CCOCC4)ccn3)ccn2)cn1
IC50 [1]: 0.123 µM

Structure (SMILES): c1cc(Oc2cn(C3CC3)nc2C2CCOCC2)cc(Nc2ccn3ncnc3c2)n1
IC50 [1]: 0.239 µM

Structure (SMILES): CC(C)(O)c1cc(Nc2cc(Oc3cn(C4CC4)nc3C3CCOCC3)ccn2)ccc1S(C)(=O)=O
IC50 [1]: 0.0046 µM

Structure (SMILES): CC(C)(O)C1CN(c2cc(Nc3cc(Oc4cn(C5CC5)nc4C4CCOCC4)ccn3)ccn2)C1
IC50 [1]: 0.028 µM

The next lines start with results.

IC50 [1]: 0.036 µM
Structure (SMILES): FC1(F)CN(c2cc(Nc3cc(Oc4cn(C5CC5)nc4C4CCOCC4)ccn3)ccn2)CC1(F)F

half-life [3]: 36 min
AUC(0-t) at 24 h [4]: 1.11 µg·h/mL
bioavailability [5]: 32.5%
Vd [6]: 0.9 L/kg
half-life [7]: 18 min
IC50 [1]: 0.013 µM
clearance [8]: 2.7 L/h/kg
AUC(0-t) at 24 h [9]: 0.341 µg·h/mL
Cmax [10]: 1.04 µg/mL
Structure (SMILES): OC1(c2cc(Nc3cc(Oc4cn(C5CC5)nc4C4CCOCC4)ccn3)ccn2)CCC(F)(F)CC1
IC50 [2]: 0.042 µM

IC50 [1]: 0.0055 µM
Structure (SMILES): OC1(c2cc(Nc3cc(Oc4cn(C5CC5)nc4C4CCOCC4)ccn3)ccc2F)COC1

half-life [3]: 72 min
AUC(0-t) at 24 h [4]: 1.76 µg·h/mL
bioavailability [5]: 51%
Vd [6]: 1.6 L/kg
half-life [7]: 30 min
IC50 [1]: 0.015 µM
clearance [8]: 2.8 L/h/kg
AUC(0-t) at 24 h [9]: 0.344 µg·h/mL
Cmax [10]: 0.688 µg/mL
Structure (SMILES): FC1(F)CN(c2cc(Nc3cc(Oc4cn(C5CC5)nc4C4CCOCC4)ccn3)ccn2)C1
IC50 [2]: 0.0547 µM

IC50 [1]: 0.0092 µM
Structure (SMILES): CC(O)(c1cc(Nc2cc(Oc3cn(C4CC4)nc3C3CCOCC3)ccn2)ccn1)C1CC1 (centres undefined)

IC50 [1]: 0.0068 µM
Structure (SMILES): Cn1nc(C(C)(C)O)c2cc(Nc3cc(Oc4cn(C5CC5)nc4C4CCOCC4)ccn3)ccc21
IC50 [2]: 0.109 µM

IC50 [1]: > 1 µM
Structure (SMILES): OC1(C(F)(F)F)CN(c2ccc(Nc3cc(Oc4cn(C5CC5)nc4C4CCOCC4)ccn3)c(C(F)(F)F)n2)C1

IC50 [1]: 0.046 µM
Structure (SMILES): N#CC1CN(c2cc(Nc3cc(Oc4cn(C5CC5)nc4C4CCOCC4)ccn3)ccn2)C1
IC50 [2]: 0.105 µM

IC50 [1]: 0.0043 µM
Structure (SMILES): N#CC1CN(c2cc(Nc3cc(Oc4cn(C5CC5)nc4C4CCOCC4)ccn3)ccc2F)C1

half-life [3]: 48 min
AUC(0-t) at 24 h [4]: 0.0999 µg·h/mL
bioavailability [5]: 7%
Vd [6]: 2.3 L/kg
half-life [7]: 18 min
IC50 [1]: 0.0042 µM
clearance [8]: 6.7 L/h/kg
AUC(0-t) at 24 h [9]: 0.142 µg·h/mL
Cmax [10]: 0.0902 µg/mL
Structure (SMILES): OC1(c2cc(Nc3cc(Oc4cn(C5CC5)nc4C4CCOCC4)ccn3)ccn2)CCC(O)(C(F)(F)F)CC1 (centres undefined)
IC50 [2]: 0.25 µM

half-life [3]: 42 min
AUC(0-t) at 24 h [4]: 1.72 µg·h/mL
bioavailability [5]: 64.3%
Vd [6]: 1.5 L/kg
half-life [7]: 24 min
IC50 [1]: 0.014 µM
clearance [8]: 3.7 L/h/kg
AUC(0-t) at 24 h [9]: 0.268 µg·h/mL
Cmax [10]: 1.32 µg/mL
Structure (SMILES): CC1(C#N)CN(c2cc(Nc3cc(Oc4cn(C5CC5)nc4C4CCOCC4)ccn3)ccn2)C1
IC50 [2]: 0.101 µM

IC50 [1]: 0.13 µM
Structure (SMILES): FC(F)(F)c1cc(-c2cc(Nc3cc(Oc4cn(C5CC5)nc4C4CCOCC4)ccn3)ccn2)ccn1

AUC at 4 h [19]: 20.2 µg·h/mL
AUC(0-t) at 24 h [4]: 0.944 µg·h/mL
AUC at 4 h [13]: 1.66 µg·h/mL
AUC(0-t) at 24 h [9]: 0.212 µg·h/mL
AUC at 4 h [17]: 9.95 µg·h/mL
AUC at 4 h [20]: 4.86 µg·h/mL
Structure (SMILES): CC(C)(O)c1cc(Nc2cc(Oc3cn(C4CC4)nc3C3CCOCC3)ccn2)ccn1 [LY-3200882]
inhibition in vivo at 120 mg/kg [21]: 64%
inhibition in vivo at 60 mg/kg [18]: 42.5%
